{"source": "patent US8178506B2", "about": "“Oligomeric compounds and compositions for use in modulation of small non-coding RNAs” (Regulus Therapeutics Inc., priority 2003, dated 2012)", "key": {"[1]": {"tested_on": "adipocytes", "assay": "Triglyceride accumulation assay in adipocytes", "assay_type": "cell-based, human"}, "[2]": {"tested_on": "aP2", "assay": "aP2 mRNA expression in adipocytes (real-time PCR)", "assay_type": "cell-based, human", "conditions": "for aP2 mRNA: differentiating adipocytes transfected with oligomeric compound, Table 75; for AP2 mRNA: Table 17, differentiating adipocytes, control = treatment with ISIS 342673"}, "[3]": {"tested_on": "HSL", "assay": "HSL mRNA expression in adipocytes (real-time PCR)", "assay_type": "cell-based, human"}, "[4]": {"tested_on": "Glut4", "assay": "Glut4 mRNA expression in adipocytes (real-time PCR)", "assay_type": "cell-based, human"}, "[5]": {"tested_on": "PPARγ", "assay": "PPARγ mRNA expression in adipocytes (real-time PCR)", "assay_type": "cell-based, human"}, "[6]": {"tested_on": "BJ, B16-F10, T47D, T47Dp53 and HeLa cells", "assay": "Cell cycle assay (propidium iodide flow cytometry), cell line panel", "assay_type": "cell-based", "conditions": "for G1 (percentage of cells in phase of the cell cycle) / G2/M (percentage of cells in phase of the cell cycle) / S (percentage of cells in phase of the cell cycle) / SubG1 (percentage of cells in phase of the cell cycle) / aneuploid (percentage of cells): 150 nM oligomeric compound, 4.5 μg/ml LIPOFECTIN, after 72 hours, propidium iodide flow cytometry"}, "[7]": {"tested_on": "HeLa cells", "assay": "Cell cycle assay in HeLa cells", "assay_type": "cell-based, human", "conditions": "HeLa cells, 150 nM oligomeric compound"}, "[8]": {"conditions": "differentiating adipocytes transfected with oligomeric compound, Table 75"}, "[9]": {"conditions": "24 hours, relative to untreated control (UTC = 100)"}, "[10]": {"conditions": "48 hours after treatment, relative to untreated control (UTC=100)"}, "[11]": {"conditions": "Table 17, differentiating adipocytes, control = treatment with ISIS 342673"}}, "note": "In the oligonucleotide strings, read from the 5' end, every base follows the letter of its sugar. An asterisk marks phosphorothioate; unmarked linkages are phosphodiester. Other units and linkages are bracketed, terminal groups are in braces. A string of capitals states the bases alone. e = 2'-O-(2-methoxyethyl) (MOE); [5mC] = 5-methylcytosine; d = 2'-deoxy (DNA)", "data": [{"substance": "340348 (antisense CTACCTGCACGAACAGCACTTT; all 2'-MOE, all phosphorothioate, methylation of C not given here) [compound 340348]", "values": [{"measurement": "TG (triglyceride accumulation)", "setting": "[1]; [8]", "value": "48 percentage of untreated control (UTC)"}, {"measurement": "aP2 mRNA", "setting": "[2]", "value": "68 percentage of untreated control (UTC)"}, {"measurement": "HSL mRNA", "setting": "[3]; [8]", "value": "57 percentage of untreated control (UTC)"}, {"measurement": "GLUT4 mRNA", "setting": "[4]; [8]", "value": "52 percentage of untreated control (UTC)"}, {"measurement": "PPAR gamma mRNA", "setting": "[5]; [8]", "value": "78 percentage of untreated control (UTC)"}, {"measurement": "G1 (percentage of cells in phase of the cell cycle)", "setting": "[6]", "value": 53.9, "unit": "%"}, {"measurement": "G2/M (percentage of cells in phase of the cell cycle)", "setting": "[6]", "value": 14.3, "unit": "%"}, {"measurement": "S (percentage of cells in phase of the cell cycle)", "setting": "[6]", "value": 31.8, "unit": "%"}, {"measurement": "SubG1 (percentage of cells in phase of the cell cycle)", "setting": "[6]", "value": 14.1, "unit": "%"}, {"measurement": "aneuploid (percentage of cells)", "setting": "[6]", "value": 12.3, "unit": "%"}]}, {"substance": "340365 (antisense TACTTTATATAGAACACAAG; sugars from the 5' end e5 d10 e5, all phosphorothioate, methylation of C not given here) [compound 340365]", "values": [{"measurement": "G1 (percentage of cells in phase of the cell cycle)", "setting": "[6]", "value": 55.2, "unit": "%"}, {"measurement": "G2/M (percentage of cells in phase of the cell cycle)", "setting": "[6]", "value": 15.4, "unit": "%"}, {"measurement": "S (percentage of cells in phase of the cell cycle)", "setting": "[6]", "value": 29.4, "unit": "%"}, {"measurement": "SubG1 (percentage of cells in phase of the cell cycle)", "setting": "[6]", "value": 4.3, "unit": "%"}, {"measurement": "aneuploid (percentage of cells)", "setting": "[6]", "value": 18.3, "unit": "%"}, {"measurement": "% cells aneuploid", "setting": "[7]; [9]", "value": 84, "unit": "%"}, {"measurement": "% cells in cell cycle phase G1", "setting": "[7]; [9]", "value": 125, "unit": "%"}, {"measurement": "% cells in cell cycle phase G2/M", "setting": "[7]; [9]", "value": 114, "unit": "%"}, {"measurement": "% cells in cell cycle phase S", "setting": "[7]; [9]", "value": 71, "unit": "%"}, {"measurement": "% cells in cell cycle phase subG1", "setting": "[7]; [9]", "value": 109, "unit": "%"}, {"measurement": "% cells in cell cycle phase: G1", "setting": "[7]; [10]", "value": 99, "unit": "%"}, {"measurement": "% cells in cell cycle phase: G2/M", "setting": "[7]; [10]", "value": 109, "unit": "%"}, {"measurement": "% cells in cell cycle phase: S", "setting": "[7]; [10]", "value": 94, "unit": "%"}, {"measurement": "% cells in cell cycle phase: aneuploid", "setting": "[7]; [10]", "value": 129, "unit": "%"}, {"measurement": "% cells in cell cycle phase: subG1", "setting": "[7]; [10]", "value": 71, "unit": "%"}]}, {"substance": "TACTTTATATAGAACACAAG (chemistry not given here) [ISIS 340365, 5-10-5 gapmer PS; targets mir-92-2]", "values": [{"measurement": "percentage of aneuploid cells", "setting": "[6]; 150 nM, 72 hours (Table 29)", "value": "higher than average percentages of aneuploid cells"}]}, {"substance": "328364 (eT*e[5mC]*eT*eT*eA*dA*dG*dT*d[5mC]*dA*d[5mC]*dA*dA*dA*dT*e[5mC]*eA*eG*e[5mC]*eA) [compound 328364]", "values": [{"measurement": "G1 (percentage of cells in phase of the cell cycle)", "setting": "[6]", "value": 61.5, "unit": "%"}, {"measurement": "G2/M (percentage of cells in phase of the cell cycle)", "setting": "[6]", "value": 14.3, "unit": "%"}, {"measurement": "S (percentage of cells in phase of the cell cycle)", "setting": "[6]", "value": 24.2, "unit": "%"}, {"measurement": "SubG1 (percentage of cells in phase of the cell cycle)", "setting": "[6]", "value": 1.9, "unit": "%"}, {"measurement": "aneuploid (percentage of cells)", "setting": "[6]", "value": 15.1, "unit": "%"}]}, {"substance": "CCGAGCTCTCTTATCAACAG (e[5mC]*e[5mC]*eG*eA*eG*d[5mC]*dT*d[5mC]*dT*d[5mC]*dT*dT*dA*dT*d[5mC]*eA*eA*e[5mC]*eA*eG) [ISIS 183891, 5-10-5 gapmer targeting kinesin-like 1 (Eg5), positive control, reference compound]", "values": [{"measurement": "cell cycle delay or arrest in all cell lines", "setting": "[6]; BJ 200 nM, T47D, T47Dp53, HeLa, B16 150 nM, 48 hours", "value": "delay or arrest in G2/M phase"}]}, {"substance": "TCATAGCCCTGTACAATGCTGCT (anti-miR; chemistry not fully specified) [ISIS 327906, uniform 2′-MOE PS; targets mir-103-1]", "values": [{"measurement": "percentage of cells in the G2/M phase", "setting": "[6]; 150 nM, 72 hours (Table 29)", "value": "increased percentage of cells in the G2/M phase"}, {"measurement": "percentage of cells with hypodiploid DNA content (subG1)", "setting": "[6]; 150 nM, 72 hours (Table 29)", "value": "increased percentage of cells with hypodiploid DNA content"}]}, {"substance": "AGCCTATCCTGGATTACTTGAA (anti-miR; chemistry not fully specified) [ISIS 327907, uniform 2′-MOE PS; targets mir-26a]", "values": [{"measurement": "percentage of aneuploid cells", "setting": "[6]; 150 nM, 72 hours (Table 29)", "value": "higher than average percentages of aneuploid cells"}, {"measurement": "percentage of cells with hypodiploid DNA content (subG1)", "setting": "[6]; 150 nM, 72 hours (Table 29)", "value": "increased percentage of cells with hypodiploid DNA content"}]}, {"substance": "346913 (AGAAAGGCAGCAGGUCGUAUAG; all 2'-MOE, all phosphorothioate, methylation of C and T or U not given here) [compound 346913]", "values": [{"measurement": "TG (triglyceride accumulation)", "setting": "[1]; [8]", "value": "63 percentage of untreated control (UTC)"}, {"measurement": "aP2 mRNA", "setting": "[2]", "value": "66 percentage of untreated control (UTC)"}, {"measurement": "HSL mRNA", "setting": "[3]; [8]", "value": "58 percentage of untreated control (UTC)"}, {"measurement": "GLUT4 mRNA", "setting": "[4]; [8]", "value": "40 percentage of untreated control (UTC)"}, {"measurement": "PPAR gamma mRNA", "setting": "[5]; [8]", "value": "59 percentage of untreated control (UTC)"}]}, {"substance": "346914 (AUCUGCACUGUCAGCACUUUA; all 2'-MOE, all phosphorothioate, methylation of C and T or U not given here) [compound 346914]", "values": [{"measurement": "TG (triglyceride accumulation)", "setting": "[1]; [8]", "value": "41 percentage of untreated control (UTC)"}, {"measurement": "aP2 mRNA", "setting": "[2]", "value": "48 percentage of untreated control (UTC)"}, {"measurement": "HSL mRNA", "setting": "[3]; [8]", "value": "27 percentage of untreated control (UTC)"}, {"measurement": "GLUT4 mRNA", "setting": "[4]; [8]", "value": "16 percentage of untreated control (UTC)"}, {"measurement": "PPAR gamma mRNA", "setting": "[5]; [8]", "value": "41 percentage of untreated control (UTC)"}]}, {"substance": "328126 (antisense e[5mC]*e[5mC]*eA*eA*eG*eT*eG*eT*eT*eA*eG*eA*eG*e[5mC]*eA*eA*eG*eA*eT*e[5mC]*eA) [compound 328126]", "values": [{"measurement": "TG (triglyceride accumulation)", "setting": "[1]; [11]", "value": "98.9 percentage of control"}, {"measurement": "TG (triglyceride accumulation)", "setting": "[1]; [8]", "value": "108 percentage of untreated control (UTC)"}, {"measurement": "AP2 mRNA", "setting": "[2]", "value": "90.9 percentage of control"}, {"measurement": "aP2 mRNA", "setting": "[2]", "value": "120 percentage of untreated control (UTC)"}, {"measurement": "HSL mRNA", "setting": "[3]; [11]", "value": "83.2 percentage of control"}, {"measurement": "HSL mRNA", "setting": "[3]; [8]", "value": "135 percentage of untreated control (UTC)"}, {"measurement": "GLUT4 mRNA", "setting": "[4]; [11]", "value": "100.7 percentage of control"}, {"measurement": "GLUT4 mRNA", "setting": "[4]; [8]", "value": "107 percentage of untreated control (UTC)"}, {"measurement": "PPAR gamma mRNA", "setting": "[5]; [11]", "value": "75.0 percentage of control"}, {"measurement": "PPAR gamma mRNA", "setting": "[5]; [8]", "value": "98 percentage of untreated control (UTC)"}]}, {"substance": "340360 (antisense GCAACUUAGUAAUGUGCAAUA; all 2'-MOE, all phosphorothioate, methylation of C and T or U not given here) [compound 340360]", "values": [{"measurement": "TG (triglyceride accumulation)", "setting": "[1]; [8]", "value": "106 percentage of untreated control (UTC)"}, {"measurement": "aP2 mRNA", "setting": "[2]", "value": "102 percentage of untreated control (UTC)"}, {"measurement": "HSL mRNA", "setting": "[3]; [8]", "value": "102 percentage of untreated control (UTC)"}, {"measurement": "GLUT4 mRNA", "setting": "[4]; [8]", "value": "91 percentage of untreated control (UTC)"}, {"measurement": "PPAR gamma mRNA", "setting": "[5]; [8]", "value": "96 percentage of untreated control (UTC)"}]}, {"substance": "328131 (antisense eA*eT*eA*eT*eG*eT*e[5mC]*eA*eT*eA*eT*e[5mC]*eA*eA*eA*e[5mC]*eT*e[5mC]*e[5mC]*eT*eA) [compound 328131]", "values": [{"measurement": "TG (triglyceride accumulation)", "setting": "[1]; [11]", "value": "89.1 percentage of control"}, {"measurement": "TG (triglyceride accumulation)", "setting": "[1]; [8]", "value": "74 percentage of untreated control (UTC)"}, {"measurement": "AP2 mRNA", "setting": "[2]", "value": "95.4 percentage of control"}, {"measurement": "aP2 mRNA", "setting": "[2]", "value": "63 percentage of untreated control (UTC)"}, {"measurement": "HSL mRNA", "setting": "[3]; [11]", "value": "81.8 percentage of control"}, {"measurement": "HSL mRNA", "setting": "[3]; [8]", "value": "51 percentage of untreated control (UTC)"}, {"measurement": "GLUT4 mRNA", "setting": "[4]; [11]", "value": "103.6 percentage of control"}, {"measurement": "GLUT4 mRNA", "setting": "[4]; [8]", "value": "56 percentage of untreated control (UTC)"}, {"measurement": "PPAR gamma mRNA", "setting": "[5]; [11]", "value": "88.2 percentage of control"}, {"measurement": "PPAR gamma mRNA", "setting": "[5]; [8]", "value": "55 percentage of untreated control (UTC)"}]}]}
